Experimental data from patent US20240082222A1, “4-CHLORO-N-[2-[(4-CHLOROPHENYL)METHYL]-3-OXO-1,2,4-THIADIAZOL-5-YL]BENZAMIDE FOR USE IN MEDICINE” (Betagenon AB, priority 2021, published 2024).
Several values for one entry are separate records, joined by “and”; a condition that tells them apart may be missing. Equal values may be shown once. Where a name gives a salt, the structure may show the parent alone.

Assay: Pharmacokinetic study in humans, sodium salt in enteric capsules, single and multiple dose (Example 2)
Type: in vivo, human
Experimental: An open, randomised, parallel-group study in healthy volunteers (hereafter referred to as subjects) was conducted to evaluate the exposure of 4-chloro-N-[2-[(4-chlorophenyl)methyl]-3-oxo-1,2,4-thiadiazol-5-yl]benzamide after single and multiple dose administration of 3 dose levels of the sodium salt of 4-chloro-N-[2-[(4-chlorophenyl)methyl]-3-oxo-1,2,4-thiadiazol-5-yl]benzamide and to evaluate combination with dapagliflozin at steady state.
For the study, Vcaps enteric capsules, size 0, were individually filled with 200 mg of milled test material together with 2 mg of sodium docusate, 125 mg of mannitol and 6.5 mg of sodium lauryl sulfate. […]
A screening visit (Visit 1) was performed within 28 days before randomisation and the start of IMP administration. The subjects were confined to the research clinic from the evening before Day 1 (Visit 2; Day—1). […]
Pre-dose safety assessments as well as pre- and post-dose PK assessments were performed. The subjects left the clinic after the last PK-sample on Day 1 and returned for a 24 h PK sample and dosing on Day 2 (Visit 3).
Subjects self-administered the test material at home from Day 3 to Day 15. A telephone visit to check compliance, AE status and use of concomitant medications will be performed on Day 8 (Visit 4).
The subjects returned to the clinic on Days 16 and 17 (Visits 5 and 6), for PK sampling and AE assessment. Visit 6 continued in the evening of Day 17, when the subjects were confined to the clinic until Day 18. On Day 18, pre- and post-dose PK and safety assessments were performed. The subjects left the clinic after the last PK sample on Day 18 and returned for a 24 h PK sample and dosing on Day 19 (Visit 7).
On Day 19 (Visit 7) subjects began co-administration of the test material and dapagliflozin (Forxiga), 10 mg per day for 7 days (Day 19 to Day 25). The subjects returned to the clinic on Day 25 (Visit 8) for final dosing, PK and safety assessments. A final end-of-study visit (Visit 9) for follow-up of safety assessments was conducted 28 days (+14 days) after Visit 8 or after early withdrawal.
Venous blood samples (approximately 5 mL) for the determination of plasma concentrations of 4-chloro-N-[2-[(4-chlorophenyl)methyl]-3-oxo-1,2,4-thiadiazol-5-yl]benzamide after administration of the test material were collected through an indwelling venous catheter on Days 1, 2, 16 to 19 and 25.
The blood samples were collected in pre-labelled Li-Heparin tubes. All the collected blood samples were be centrifuged at 1500 G for 10 minutes to separate plasma within 60 minutes from the sample is drawn. The separated plasma from each blood sample was be divided into 2 aliquots in pre-labelled polypropylene cryotubes (A and B samples, approximately 750 μL in each tube) and frozen at <−70° C. On Day 25, the plasma was divided in to 3 aliquots of at least 500 μL (A and B samples for the test material, and 1 sample for potential future analysis of dapagliflozin).
Samples for determination of plasma concentrations of 4-chloro-N[2-[(4-chlorophenyl)methyl]-3-oxo-1,2,4-thiadiazol-5-yl]benzamide were analysed by Lablytica Life Science AB, Uppsala, Sweden by means of a validated LS-MS/MS method.
The data of plasma concentration to respective time points for the analyte (4-chloro-N-[2-[(4-chlorophenyl)methyl]-3-oxo-1,2,4-thiadiazol-5-yl]benzamide) were used for the pharmacokinetic analysis. Pharmacokinetic analysis was performed using non-compartmental analysis (NCA) module of Phoenix WinNonlin 8.1 software to determine the following pharmacokinetic parameters.
After single dose administration of test material: • AUC0-24, Cmax, Tmax and dose proportionality (based on AUC0-24 and Cmax) (secondary endpoints). […]

[1] = 400 mg Dose Group, capsules once daily, Day 18, Geometric Mean
[2] = 400 mg Dose Group, capsules once daily, Day 18, Mean
[3] = 400 mg Dose Group, capsules once daily, Day 18, Median
[4] = 400 mg Dose Group, capsules once daily, Day 18, individual subjects, listed as test material
[5] = 800 mg Dose Group, capsules once daily, Day 18, Geometric Mean
[6] = 800 mg Dose Group, capsules once daily, Day 18, Mean
[7] = 800 mg Dose Group, capsules once daily, Day 18, Median
[8] = 800 mg Dose Group, capsules once daily, Day 18, individual subjects, listed as test material
[9] = 2000 mg Dose Group, capsule once daily, Day 18, Geometric Mean
[10] = 2000 mg Dose Group, capsule once daily, Day 18, Mean
[11] = 2000 mg Dose Group, capsule once daily, Day 18, Median
[12] = 2000 mg Dose Group, capsule once daily, Day 18, individual subjects, listed as test material
[13] = capsule once daily, Day 18, individual subjects, listed as test material
[14] = dose-normalised, 400 mg Dose Group, capsules once daily, Day 18, Geometric Mean
[15] = dose-normalised, 400 mg Dose Group, capsules once daily, Day 18, Mean
[16] = dose-normalised, 400 mg Dose Group, capsules once daily, Day 18, Median
[17] = dose-normalised, 400 mg Dose Group, capsules once daily, Day 18, individual subjects, listed as test material
[18] = dose-normalised, 800 mg Dose Group, capsules once daily, Day 18, Geometric Mean
[19] = dose-normalised, 800 mg Dose Group, capsules once daily, Day 18, Mean
[20] = dose-normalised, 800 mg Dose Group, capsules once daily, Day 18, Median
[21] = dose-normalised, 800 mg Dose Group, capsules once daily, Day 18, individual subjects, listed as test material
[22] = dose-normalised, 2000 mg Dose Group, capsule once daily, Day 18, Geometric Mean

For `O=C(Nc1nc(=O)n(Cc2ccc(Cl)cc2)s1)c1ccc(Cl)cc1` [Compound of formula II, sodium salt of 4-chloro-N-[2-[(4-chlorophenyl)methyl]-3-oxo-1,2,4-thiadiazol-5-yl]benzamide], the “increase in systemic exposure compared to a standard suspension of the active ingredient” value (200 mg of the sodium salt) was “up to five-fold”, the CLss_F [1] was 267.1 mL/h and the Clast [1] was 62.75 µg/mL. For the same compound, the Tlast [1] was 23.93 h, the CLss_F [2] was 271.8 mL/h and the Clast [2] was 64.03 µg/mL. The Tlast [2] was 23.93 h, the CLss_F [3] was 286.3 mL/h and the Clast [3] was 60.9 µg/mL. The Tlast [3] was 23.93 h, the AUC_TAU [4] was 1300 µg·h/mL and 1750 µg·h/mL and 1480 µg·h/mL and 1320 µg·h/mL and 2100 µg·h/mL and the AUClast [4] was 1290 µg·h/mL and 1740 µg·h/mL and 1480 µg·h/mL and 1320 µg·h/mL and 2090 µg·h/mL and 1650 µg·h/mL. The CLss_F [4] was 330 mL/h and 308 mL/h and 229 mL/h and 270 mL/h and 303 mL/h and 191 mL/h, the Clast [4] was 54.7 µg/mL and 50.4 µg/mL and 73.2 µg/mL and 60.9 µg/mL and 49.2 µg/mL and 86.9 µg/mL and 72.9 µg/mL and the Tlast [4] was 23.9 h (6×) and 24 h. For the same compound, the Tmax [4] was 12 h and 2 h and 3 h and 0.25 h and 23.9 h, the CLss_F [5] was 316.5 mL/h and the Tlast [5] was 23.92 h. The CLss_F [6] was 321.8 mL/h, the Tlast [6] was 23.92 h and the CLss_F [7] was 292.8 mL/h. The Tlast [7] was 23.92 h, the Tlast (800 mg Dose Group, capsules once daily, Day 18, individual subjects) was 23.9 h and the AUC_TAU [8] was 2500 µg·h/mL and 2910 µg·h/mL and 2730 µg·h/mL and 2870 µg·h/mL. For the same compound, the AUClast [8] was 2490 µg·h/mL and 2900 µg·h/mL and 2620 µg·h/mL and 2980 µg·h/mL and 2720 µg·h/mL and 2580 µg·h/mL and 2860 µg·h/mL, the CLss_F [8] was 442 mL/h and 321 mL/h and 275 mL/h and 293 mL/h and 279 mL/h and the Clast [8] was 98 μg/ml and 120 μg/ml and 115 μg/ml (2×) and 127 μg/ml and 110 μg/ml and 117 μg/ml. The Cmax [8] was 118 µg/mL and 127 µg/mL and 115 µg/mL and 130 µg/mL and 126 µg/mL and 117 µg/mL and 128 µg/mL, the Tmax [8] was 9.98 h and 0 h and 23.9 h and 10 h and 6 h and the CLss_F [9] was 202.7 mL/h. For the same compound, the Clast [9] was 42.19 µg/mL, the Tlast [9] was 23.92 h and the CLss_F [10] was 207.9 mL/h. The Tlast [10] was 23.92 h, the CLss_F [11] was 210.5 mL/h and the Clast [11] was 38.7 µg/mL. The Tlast [11] was 23.92 h, the AUC_TAU [12] was 1130 µg·h/mL and 841 µg·h/mL and 1600 µg·h/mL and 802 µg·h/mL and 950 µg·h/mL and 774 µg·h/mL and 1010 µg·h/mL and the CLss_F [12] was 176 mL/h and 238 mL/h and 125 mL/h and 249 mL/h and 210 mL/h and 259 mL/h and 198 mL/h. For the same compound, the Tmax [12] was 0.267 h and 23.9 h and 0 h and 10 h and 12 h, the Tlast (capsule once daily, Day 18, individual subjects) was 23.9 h and the AUClast [13] was 1130 µg·h/mL and 1400 µg·h/mL and 838 µg·h/mL and 1600 µg·h/mL and 800 µg·h/mL and 947 µg·h/mL and 772 µg·h/mL and 1010 µg·h/mL. For the same compound, the Clast [13] was 47 µg/mL and 62 µg/mL and 33.5 µg/mL and 68 µg/mL and 33.3 µg/mL and 36.7 µg/mL and 30.4 µg/mL and 40.7 µg/mL, the Cmax [13] was 52.1 µg/mL and 62 µg/mL and 42 µg/mL and 71.9 µg/mL and 40.2 µg/mL and 46.2 µg/mL and 34.6 µg/mL and 49.9 µg/mL and the “accumulation in the blood plasma after repeat dosing” value (capsules, 200-800 mg once daily) was “substantial accumulation”. It also gave an AUC_TAU_D [14] of 3.744 µg·h/mL/mg, an AUClast_D [14] of 3.788 µg·h/mL/mg and a Cmax_D [14] of 0.1741 µg/mL/mg. The AUC_TAU_D [15] was 3.816 µg·h/mL/mg, the AUClast_D [15] was 3.852 µg·h/mL/mg and the Cmax_D [15] was 0.1769 µg/mL/mg. It also gave an AUC_TAU_D [16] of 3.504 µg·h/mL/mg, an AUClast_D [16] of 3.703 µg·h/mL/mg and a Cmax_D [16] of 0.1653 µg/mL/mg. The AUC_TAU_D [17] was 3.03 µg·h/mL/mg and 3.24 µg·h/mL/mg and 4.37 µg·h/mL/mg and 3.71 µg·h/mL/mg and 3.3 µg·h/mL/mg and 5.24 µg·h/mL/mg, the AUClast_D [17] was 3.02 µg·h/mL/mg and 3.23 µg·h/mL/mg and 4.36 µg·h/mL/mg and 3.7 µg·h/mL/mg and 3.29 µg·h/mL/mg and 5.23 µg·h/mL/mg and 4.13 µg·h/mL/mg and the Cmax_D [17] was 0.141 µg/mL/mg and 0.15 µg/mL/mg and 0.193 µg/mL/mg and 0.165 µg/mL/mg and 0.161 µg/mL/mg and 0.248 µg/mL/mg and 0.182 µg/mL/mg. For the same compound, the AUC_TAU_D [18] was 3.159 µg·h/mL/mg, the AUClast_D [18] was 3.24 µg·h/mL/mg and the Cmax_D [18] was 0.1472 µg/mL/mg. The AUC_TAU_D [19] was 3.205 µg·h/mL/mg, the AUClast_D [19] was 3.274 µg·h/mL/mg and the Cmax_D [19] was 0.1482 µg/mL/mg. It also gave an AUC_TAU_D [20] of 3.416 µg·h/mL/mg, an AUClast_D [20] of 3.337 µg·h/mL/mg and a Cmax_D [20] of 0.1525 µg/mL/mg. The AUC_TAU_D [21] was 2.26 µg·h/mL/mg and 3.12 µg·h/mL/mg and 3.64 µg·h/mL/mg and 3.27 µg·h/mL/mg and 3.42 µg·h/mL/mg and 3.59 µg·h/mL/mg, the AUClast_D [21] was 2.25 µg·h/mL/mg and 3.11 µg·h/mL/mg and 3.63 µg·h/mL/mg and 144 µg·h/mL/mg and 3.73 µg·h/mL/mg and 3.4 µg·h/mL/mg and 3.22 µg·h/mL/mg and 3.58 µg·h/mL/mg and the Cmax_D [21] was 0.109 µg/mL/mg and 0.148 µg/mL/mg and 0.159 µg/mL/mg and 0 µg/mL/mg and 0.163 µg/mL/mg and 0.158 µg/mL/mg and 0.146 µg/mL/mg and 0.16 µg/mL/mg. The AUC_TAU_D [22] was 4.934 µg·h/mL/mg, the AUClast_D [22] was 5.139 µg·h/mL/mg and the “Cmax D” value [22] was 0.2432 µg/mL/mg. The AUC_TAU_D (dose-normalised, 2000 mg Dose Group, capsule once daily, Day 18, Mean) was 5.082 µg·h/mL/mg.
